Values quoted from earlier work, collected in patent EP0893486B1, “Acrylic compositions for consolidation of soils and concrete in general” (Draco Italiana S.p.A., priority 1997, dated 1999).

Details: classification of the single monomer

| Compound | classified as |
| --- | --- |
| C=C(C)C(=O)OCCO [2-hydroxyethylmethacrylate] | irritants |
| C=CC(=O)OCC(CC)(COCC(CC)(COC(=O)C=C)COC(=O)C=C)COC(=O)C=C [Ditrimetbylolpropanetetraacrylate] | irritants |
| C=C(C)C(=O)OCC(CC)(COC(=O)C(=C)C)COC(=O)C(=C)C [trimethylolpropanetrimethacrylate] | irritants |
| polyethyleneglycol-400-diacrylate | irritants |
| polyethyleneglycol-600-dimethacrylate | irritants |
| polyethyleneglycolmonoacrylate | irritants |
| trimethylolpropanetriacrylate-ethoxylate | irritants |
